Source: patent US5116846A, “N-aralkyl piperidine derivatives as psychotropic drugs” (priority 1990, dated 1992)

Columns and labels:
sigma receptor = conditions: Tam, Eur. Pharmacol, 109:33-41 (1985); cited from earlier work
[1] = Isolation-Induced Aggression in Mice; assay type: in vivo, mouse (male Balb/c)
Protocol: Male Balb/c mice (Charles River) were used. […] Isolated mice failing to consistently attack an intruder were eliminated from the colony.
Drug testing was carried out by treating the isolated mice with test drugs or standards. Fifteen minutes after dosing with test drugs by the oral route, one isolated mouse was removed from its home cage and placed in the home cage of another isolate. Scoring was a yes or no response for each pair. A maximum of 3 minutes was allowed for an attack and the pair was separated immediately upon an attack. Selection of home cage and intruder mice was randomized for each test. Mice were treated and tested twice a week with at least a 2 day washout period between treatments.

[2] = (+)-N-Allylnormetazocine-Induced Turning Behavior in Rats; assay type: in vivo, rat (male Sprague-Dawley); conditions: test drug p.o. or s.c. 20 minutes before testing; (+)-N-allylnormetazocine 4.0 mg/kg s.c.; class symbols not defined
Protocol: (+)-N-Allylnormetazocine-Induced Turning Behavior in Rats
Male Sprague-Dawley rats (CDlCR, Charles River), weighing 190-290 g, were used for surgery. In order to spare […] neurons, rats were injected with 25 mg/kg imipramine i.p. 30 minutes before surgery. The rats were anesthetized with a 1:1.2 ratio mixture of Xylazine:Ketamine given 0.1 mL/100 g body weight i.m. A Ringers-Wydaze (100:0.01) solution was given to prevent dehydration. Dopamine was depleted in the right striatum by injecting the neurotoxin 6-hydroxydopamine (6-OHDA) into the substantia nigra of the right cerebral hemisphere. Five mg of 6-OHDA was dissolved in 5 mL of a 0.04% ascorbic acid solution which had been deoxygenated with nitrogen. Five μL of the 6-OHDA solution was injected into the substantia nigra through a 26 gauge needle over a five minute period. […]
Rotation rate and direction were determined with Coulbourn Instruments Rotometry Monitors. Clockwise and counter clockwise rotations were recorded at 30 and 60 minute intervals. […]
The data were analyzed with an analysis of variance statistical test and individual comparisons of each dose of test drug to control were made with Dunnett's multiple range test. The ED50 was calculated with a Litchfield and Wilcoxon test using percent of control values. […]

SMILES: c1ccc(C2(N3CCCCC3)CCCCC2)cc1 [PCP, phencyclidine]
- affinity for the sigma receptor (sigma receptor): significant affinity for the sigma receptor

SMILES: O=C(CCCN1CCC(O)(c2ccc(Cl)cc2)CC1)c1ccc(F)cc1 [Haloperidol, haloperidol]
- Inhibition of Isolation-induced Aggression ([1]; oral, fifteen minutes after dosing, class symbols not defined): potent activities in inhibiting the isolation-induced aggressive behavior
- Inhibition of Isolation-induced Aggression ([1]; po): +++
- Inhibition of (+)-N-Allylnormetazocine Induced Turning [2]: potently antagonized
